Residues, ends and D or L forms follow the SMILES beside them. *: point of attachment. Cbz = O=C(OCc1ccccc1)*
Assays:
Format in all cases: cell-based
[1] = test system: non-phosphorylated β-catenin; assay: Non-phosphorylated β-catenin content in Colo205-LUC-TCF/LEF cells, compound plus MG132; settings: 200 nM compound plus 2 μM MG132, 4 hours, FIG. 2
Protocol: Add 500 ul medium containing 200 nM compound plus 2 μM MG132 or 200 nM compound plus control solvent to each well of a 6-well cell culture plate, then add 500 ul containing 10^6 Colo205-LUC-TCF/LEF cells respectively, and incubate for 4 hours Finally, the protein was collected to detect the content of non-phosphorylated β-catenin.

[2] = test system: non-phosphorylated β-catenin; assay: Western blot of non-phosphorylated β-catenin content in HepG2 cells; settings: overnight, read-out: Non-phosphorylated β-catenin content inhibition IC50
Excerpt: (§1) The Wnt signaling pathway is a key pathway for abnormal tumor growth. In colon cancer, liver cancer, pancreatic cancer and other cancers, a large number of patients have abnormal activation of the Wnt signaling pathway. The Wnt signaling pathway depends on the fine balance of β-catenin protein level. When Wnt signaling is not activated, β-catenin is phosphorylated by CK1 and APC/Axin/GSK-3β complexes, and the β-catenin protein is kept at a low level through ubiquitin-dependent proteasome degradation. When the Wnt signaling pathway is activated, β-catenin maintains a stable state of non-phosphorylation, and non-phosphorylated β-catenin can be transported into the nucleus through Rac1 and other factors, and plays a transcriptional regulatory role by binding to LEF/TCF transcription factors in the nucleus, activates downstream target genes such as C-myc and Cyclin D1, and promotes cell proliferation. Therefore, abnormal activation of the Wnt signaling pathway in tumor cells will lead to abnormal proliferation of tumors. […]
(§2) Add 500 μL of the compound with the highest concentration shown in FIG. 1 to each well of the 6-well cell culture plate, and make a 10-fold gradient dilution of the compound concentration. […] Load the protein sample directly to the SDS-PAGE gel for electrophoresis separation, transfer the protein on the SDS-PAGE gel to the PVDF membrane; after the transfer was completed, the protein was blocked by Western blocking solution, then Rabbit anti-β-catenin non-phospho S37/After T41 (ab278503) was added and the protein was incubated at room temperature for one hour and washed, the content of non-phosphorylated β-catenin was detected by incubation with Goat Anti-Rabbit IgG H&L (HRP) (ab6721). […]

[3] = test system: non-phosphorylated β-catenin; assay: Western blot of non-phosphorylated β-catenin content in DU4475 cells; settings: overnight, read-out: Non-phosphorylated β-catenin content inhibition IC50
Excerpt: as §1, §2

[4] = test system: non-phosphorylated β-catenin; assay: Western blot of non-phosphorylated β-catenin content in Colo205 cells
Excerpt: The Wnt signaling pathway is a key pathway for abnormal tumor growth. In colon cancer, liver cancer, pancreatic cancer and other cancers, a large number of patients have abnormal activation of the Wnt signaling pathway. The Wnt signaling pathway depends on the fine balance of β-catenin protein level. When Wnt signaling is not activated, β-catenin is phosphorylated by CK1 and APC/Axin/GSK-3β complexes, and the β-catenin protein is kept at a low level through ubiquitin-dependent proteasome degradation. When the Wnt signaling pathway is activated, β-catenin maintains a stable state of non-phosphorylation, and non-phosphorylated β-catenin can be transported into the nucleus through Rac1 and other factors, and plays a transcriptional regulatory role by binding to LEF/TCF transcription factors in the nucleus, activates downstream target genes such as C-myc and Cyclin D1, and promotes cell proliferation. Therefore, abnormal activation of the Wnt signaling pathway in tumor cells will lead to abnormal proliferation of tumors. In order to explore the inhibitory mechanism of the compound on the proliferation of tumor cell lines, the compound AN10250399, AN10250421 or AN10250484 was used to treat sensitive cells Colo205, DU4475 and HepG2, and Western blot was used to detect the content of non-phosphorylated β-catenin in the Wnt pathway to clarify the effect of the compound on content of the non-phosphorylated β-catenin.
Add 500 μL of the compound with the highest concentration shown in FIG. 1 to each well of the 6-well cell culture plate, and make a 10-fold gradient dilution of the compound concentration. Then 500 μL of 10^6 Colo205, DU4475 and HepG2 or 500 μL of medium were inoculated into each well, and corresponding solvent treatment was performed simultaneously as negative control wells. The cells were placed in a 5% CO2 cell incubator, cultured overnight at 37° C. The culture medium was removed, washed once with PBS, 200 μL of RIPA buffer containing protease inhibitors was added to each well, and the protein lysate was collected after lysing on ice for 20 min. Add an appropriate amount of concentrated SDS-PAGE protein loading buffer to the collected protein lysate samples, and heat at 100° C. or in a boiling water bath for 3-5 minutes to fully denature the protein. Load the protein sample directly to the SDS-PAGE gel for electrophoresis separation, transfer the protein on the SDS-PAGE gel to the PVDF membrane; after the transfer was completed, the protein was blocked by Western blocking solution, then Rabbit anti-β-catenin non-phospho S37/After T41 (ab278503) was added and the protein was incubated at room temperature for one hour and washed, the content of non-phosphorylated β-catenin was detected by incubation with Goat Anti-Rabbit IgG H&L (HRP) (ab6721). As a control, glyceraldehyde-3-phosphate dehydrogenase (GAPDH) was used as an internal standard protein

Row | IC50 [2] | IC50 [3] | IC50 ([4]; overnight, Western blot, read-out: Non-phosphorylated β-catenin content inhibition IC50) | SMILES | Effect of MG132 on the reduction of non-phosphorylated β-catenin content caused by AN10250484 [1] | Effect on content of non-phosphorylated β-catenin (active β-catenin), in words ([4]; FIG. 1)
1 | – | – | – | CC(C)C[C@@H](C=O)NC(=O)[C@H](CC(C)C)NC(=O)[C@H](CC(C)C)NC(=O)OCc1ccccc1 [MG132] (Cbz-Leu-Leu-Leu-aldehyde) | reverses the reduction of the content of non-phosphorylated β-catenin | –
2 | 51.6 nM | 2.2 nM | 10 nM | Cc1nc(NCc2ccc(Oc3cnc(C(F)(F)F)nc3)nc2)nc2c1NC(=O)[C@H](C)N2C [AN10250421] | – | decrease the content of non-phosphorylated β-catenin

— US20240085425A1, “BIOMARKER AND APPLICATION THEREOF” (ADLAI NORTYE BIOPHARMA CO., LTD., priority 2022, published 2024)
